# Test results taken from patent US20030229164A1, “Low foam N-alkyltartarimide and N-alkylmalimide wetting agents” (priority 2002, published 2003).
# Assays:
# [1] = Equilibrium surface tension of aqueous solutions, Wilhelmy plate method; format: physicochemical; details: for Limiting EST: saturated solutions containing <0.1 wt % in distilled water, filtered, Wilhelmy plate; for lowering the equilibrium surface tension of water (in words): aqueous solutions, Table 1 data
# Method: where R^1 is a C5 to C10 alkyl group. […] The Wilhelmy plate method of measuring surface tension is described in L. Wilhelmy's article in Ann. Phys. 1863, 119, 177, which is incorporated by reference.
# Saturated solutions containing <0.1 wt % of the materials of Examples 1-4 in distilled water were prepared. After shaking the solutions for ˜24 hours, the undissolved material was removed via filtration. Equilibrium surface tension data were obtained using the Wilhelmy plate method.
# The limiting surface tensions represent the lowest surface tensions in water which can be achieved for a given surfactant regardless of the amount of surfactant used and is used to evaluate the effectiveness of a surfactant. Lower surface tensions would allow the elimination of defects upon application of a formulation onto low energy surfaces.
# [2] = Foaming properties of aqueous solutions, procedure based upon ASTM D 1173-53; format: physicochemical; details: for Initial Foam: foam height at completion of addition
# Method: The foaming properties of aqueous solutions of N-2-ethylhexyl tartarimide (Ex 1), N-decyl tartarimide (Ex 2), N-2-ethylhexyl malimide (Ex 4) and two representative nonionic surfactants, a commercial nonylphenol 15 mole ethoxylate surfactant and a commercial C8 alkyl glucoside surfactant, were examined using a procedure based upon ASTM D 1173-53.
# In this test, a 0.1 wt % aqueous mixtures of the tartramides and malimide were prepared, any undissolved solids were filtered off, and the filtrate was added from an elevated glass pipette to a glass receiver containing the same filtrate. Regarding the commercial materials, a 0.1 wt % solution of the surfactant was added from an elevated glass pipette to a glass receiver containing the same solution. The foam height was measured at the completion of the addition (“Initial Foam Height”) and the time required for the foam to dissipate at the air-liquid interface (“Time to 0 Foam”) was recorded. This test provides a comparison between the foaming characteristics of various surfactants. In general, in coatings, inks, adhesives and agricultural formulations, foam is undesirable because it complicates handling and can lead to coating and print defects, and to inefficient application of agricultural materials.
# [3] = 0.1 wt % aqueous mixture (filtrate) or solution
compound,measurement,setting,value
"CCCCCCN1C(=O)C(O)C(O)C1=O (racemic) [Example 3, N-hexyl DL-tartarimide]",Limiting EST,[1],51.8 dyne/cm
"CCCCC(CC)CN1C(=O)C(O)C(O)C1=O (centres unmarked) [Example 1, N-2-Ethylhexyl tartarimide]",lowering the equilibrium surface tension of water (in words),[1],particularly effective
same,Limiting EST,[1],34.2 dyne/cm
same,Foam after 5 min,[2]; [3],0 cm
same,Initial Foam,[2]; [3],0 cm
same,Time to zero foam,"[2]; 0.1 wt % aqueous mixture (filtrate), values printed in sec",0 s
"CCCCCCCCCCN1C(=O)C(O)C(O)C1=O (racemic) [Example 2, N-Decyl DL-tartarimide]",lowering the equilibrium surface tension of water (in words),[1],particularly effective
same,Limiting EST,[1],32.0 dyne/cm
same,Foam after 5 min,[2]; [3],0 cm
same,Initial Foam,[2]; [3],3.2 cm
same,Time to zero foam,"[2]; 0.1 wt % aqueous mixture (filtrate) or solution, values given in min",228 s
